Entries after “also recorded” stand apart in the source; their conditions may differ. Where no end group is shown, it is not given here.
What was measured:
[1] = system: normal lung fibroblasts (NLF); test: Kinase (signaling) inhibitor treatment of NLF, Western blotting; type: cell-based, human; design: key to Collagen / Tenascin-C / ASMA / Ph-ERK / Ph-JNK / Ph-Akt: a decrease ↓; an increase ↑; no effect —; conditions: for ASMA expression / Akt activation / ERK activation / JNK activation / collagen expression / tenascin-C expression: 10 μM inhibitor, result in words; for ASMA / Ph-Akt / Ph-ERK / Ph-JNK / Collagen / Tenascin-C: inhibitor 10 μM, serum-free medium, Western blotting; for ASMA / Ph-Akt / Ph-ERK / Ph-JNK: cell layer; for Collagen / Tenascin-C: culture medium
Description: (§1) Fibroblasts were derived from lung tissue obtained at autopsy from scleroderma patients (SLF) and from age-, race-, and sex-matched normal subjects (NLF) and cultured as previously described (44). Cells were used in passages 2-4. The group of scleroderma patients fulfilled the criteria of American college of Rheumatology for the diagnosis of scleroderma with lung involvement. Normal human lung tissue was obtained from the Brain and Tissue Bank for Developmental Disorders (Baltimore, Md.) or from the National Disease Research Interchange (Philadelphia, Pa.). Scleroderma lung tissue was obtained from the Division of Pathology and Laboratory Medicine at the Medical University of South Carolina (MUSC). The study was approved by the Institutional Review Board for Human Subject Research at the MUSC.
(§2) U0126 (MEK inhibitor), SP600125 (JNK inhibitor), LY294002 (PI3 kinase inhibitor) and Akt inhibitor VIII were purchased from Calbiochem and dissolved in DMSO (mM). Cells in 6-well plates were treated with 10 μM of inhibitors in serum-free medium for 6 h (U0126) or 24 h for the other inhibitors prior to the harvesting of cells and medium.
(§3) Cell layers were harvested in boiling SDS-PAGE sample buffer; medium was dialyzed, lyophilized, and resuspended in sample buffer. Aliquots of culture medium or of cell layer representing material derived from the same number of cells was probed using the following primary antibodies and appropriate secondary antibodies. Culture medium: goat anti-human collagen I (AB758P) and rabbit anti-human tenascin-C (AB19011) from Chemicon International (Temecula, Calif.). Cell layer: rabbit antibodies against PKCα (sc-208), PKCε (sc-214), activated JNK (sc-12882), activated Akt Thr 308 (sc-166646R) and caveolin-1 (sc-894) from Santa Cruz Biotechnology (Santa Cruz, Calif.); rabbit antibodies against ERK 1/2 (9102), activated ERK 1/2 (9106), JNK (9252), Akt (9272), MEK 1/2 (9122), and activated MEK 1/2 (9121) from Cell Signaling (Beverly, Mass.); mouse monoclonal anti-ASMA (clone 1A4) from Sigma (Saint Louis, Mo.), and mouse monoclonal anti-actin (MAB1501) from Chemicon International (Temecula, Calif.).
(§4) Immunoreactive bands were quantified by densitometry using the Image 1.32J NIH software. For statistical analysis the raw densitometric data were processed and analyzed using the Prism 3.0 (GraphPad Software Inc.) statistical analysis software.

[2] = system: scleroderma lung fibroblasts (SLF); test: Kinase (signaling) inhibitor treatment of SLF, Western blotting; type: cell-based, human; design: key to Collagen / Tenascin-C / ASMA / Ph-ERK / Ph-JNK / Ph-Akt: a decrease ↓; an increase ↑; no effect —; conditions: for ASMA expression / Akt activation / ERK activation / JNK activation / collagen expression / tenascin-C expression: 10 μM inhibitor, result in words; for ASMA / Ph-Akt / Ph-ERK / Ph-JNK / Collagen / Tenascin-C: inhibitor 10 μM, serum-free medium, Western blotting; for ASMA / Ph-Akt / Ph-ERK / Ph-JNK: cell layer; for Collagen / Tenascin-C: culture medium
Description: as §1, §2, §3, §4

[3] = system: scleroderma lung fibroblasts (SLF); test: Collagen and ASMA expression in SLF treated with CSD and its subdomains; type: cell-based, human; conditions: for ASMA expression: peptides at 1, 3, and 5 μM; for inhibition of collagen expression / inhibition of ASMA expression: 5 μM peptide
Procedure: (§5) The indicated cell types (NLF and SLF) were cultured as described with 0, 1, 3, or 5 μM of the indicated peptides. Collagen in the medium and ASMA and actin (loading control) in the cell layer were detected by Western blotting. Blots were quantified densitometrically. The level of collagen and ASMA in cells treated with no peptide (divided by the level of actin) was set to 100 arbitrary units. Because SLF express higher levels of collagen and ASMA than do NLF, 100 arbitrary of collagen in SLF is equivalent to 195 arbitrary units of collagen in NLF and 100 arbitrary units of ASMA in SLF is equivalent to 255 arbitrary units of ASMA in NLF. The data presented are the average of the densitometric quantification of three independent experiments.
(§6) To compare the activity of CSD to its subdomains, five subdomains [A (82-88 amino acids), B (89-95), C (96-101), AB (82-95) and BC (89-101)] were synthesized in fusion with the Antennapedia internalization sequence and added to culture medium at 1, 3, and 5 μM. […] Very different results were obtained when examining ASMA expression.

[4] = system: normal lung fibroblasts (NLF); test: Collagen and ASMA expression in NLF treated with CSD and its subdomains; type: cell-based, human; conditions: for ASMA expression: peptides at 1, 3, and 5 μM
Procedure: as §5, §6

eNOS = conditions: endothelial cells; Bernatchez et al. (4); cited from earlier work
[5] = any concentration tested (1, 3, and 5 μM)

| Compound | ASMA expression [1] | JNK activation [1] | ASMA [1] | Ph-Akt [1] | Ph-ERK [1] | Ph-JNK [1] | Collagen [1] | Tenascin-C [1] | JNK activation [2] | ASMA [2] | Ph-Akt [2] | Ph-ERK [2] | Ph-JNK [2] | Collagen [2] | Tenascin-C [2] | ASMA expression [3] | ASMA expression [4] | eNOS activity (eNOS) | other results |
| --- | --- | --- | --- | --- | --- | --- | --- | --- | --- | --- | --- | --- | --- | --- | --- | --- | --- | --- | --- |
| O=c1[nH]c2ccccc2n1C1CCN(Cc2ccc(-c3nc4cc5[nH]cnc5cc4nc3-c3ccccc3)cc2)CC1 [Akt inhibitor VIII] | no effect | no effect | — | ↓ | ↑ | — | ↓ | ↓ | enhanced | ↓ | ↓ | ↑ | ↑ | — | — |  |  |  | Akt activation [1]: inhibited; ERK activation [1]: enhanced; collagen expression [1]: inhibited; tenascin-C expression [1]: inhibited; ASMA expression [2]: inhibited; Akt activation [2]: inhibited; ERK activation [2]: enhanced; collagen expression [2]: no effect; tenascin-C expression [2]: no effect |
| O=c1cc(N2CCOCC2)oc2c(-c3ccccc3)cccc12 [LY294002] | no effect | no effect | — | ↓ | ↑ | — | ↓ | ↓ | no effect | ↓ | ↓ | ↑ | — | ↓ | ↓ |  |  |  |  |
| N#CC(=C(/N)Sc1ccccc1N)/C(C#N)=C(\N)Sc1ccccc1N [Peptide U0126, U0126] | unaffected; also recorded: little or no effect | little or no effect | — | — | ↓ | — | ↓ | ↓ | little or no effect | — | — | ↓ | — | ↓ | ↓ |  |  |  | Akt activation [1]: little or no effect; ERK activation [1]: blocked; collagen expression [1]: blocked; tenascin-C expression [1]: inhibited; also recorded: blocked; ASMA expression [2]: unaffected; also recorded: little or no effect; Akt activation [2]: little or no effect; ERK activation [2]: blocked; collagen expression [2]: blocked; tenascin-C expression [2]: inhibited; also recorded: blocked |
| Oc1c2ccccc2c2c3c(cccc13)N=N2 [SP600125] | no effect |  | — | ↓ | ↓ | ↓ | ↓ | ↓ |  | ↓ | ↓ | ↓ | ↓ | ↓ | ↓ |  |  |  |  |
| A: CSD subdomain A (82-88 amino acids) synthesized in fusion with the Antennapedia internalization sequence (DGIWKAS; also: fused to Antennapedia internalization sequence; UniProt Q03135 82-88, looked up, fragment) |  |  |  |  |  |  |  |  |  |  |  |  |  |  |  | did not inhibit | did not inhibit |  | collagen expression [3, 5]: did not inhibit; collagen expression [4, 5]: did not inhibit |
| AB: CSD subdomain AB (82-95) synthesized in fusion with the Antennapedia internalization sequence (DGIWKASFTTFTVT; also: fused to Antennapedia internalization sequence; UniProt Q03135 82-95, looked up, fragment) |  |  |  |  |  |  |  |  |  |  |  |  |  |  |  | did not inhibit | did not inhibit | also inhibited | inhibition of collagen expression [3]: approximately 50%; inhibition of collagen expression ([4]; 5 μM peptide): approximately 50% |
| B: CSD subdomain B (89-95) synthesized in fusion with the Antennapedia internalization sequence (FTTFTVT; also: fused to Antennapedia internalization sequence; UniProt Q03135 89-95, looked up, fragment) |  |  |  |  |  |  |  |  |  |  |  |  |  |  |  | did not inhibit | did not inhibit | most strongly inhibited | collagen expression [3, 5]: did not inhibit; collagen expression [4, 5]: did not inhibit |
| BC: CSD subdomain BC (89-101) synthesized in fusion with the Antennapedia internalization sequence (FTTFTVTKYWFYR; also: fused to Antennapedia internalization sequence; UniProt Q03135 89-101, looked up, fragment) |  |  |  |  |  |  |  |  |  |  |  |  |  |  |  | inhibited | inhibited | also inhibited | collagen expression ([3]; 3 μM peptide): completely inhibited; inhibition of ASMA expression [3]: about 80%; collagen expression ([4]; 3 μM peptide): completely inhibited; inhibition of ASMA expression ([4]; 5 μM peptide): about 80% |
| C: CSD subdomain C (96-101) synthesized in fusion with the Antennapedia internalization sequence (KYWFYR; also: fused to Antennapedia internalization sequence; UniProt Q03135 96-101, looked up, fragment) |  |  |  |  |  |  |  |  |  |  |  |  |  |  |  | inhibited |  |  | inhibition of ASMA expression [3]: approximately 50%; inhibition of collagen expression [3]: approximately 50%; inhibition of collagen expression ([4]; 5 μM peptide): approximately 50% |
